Values of other authors, collected in patent US20240408209A1, “Peptide-Protected Gold Nanocluster and Use in Photodynamic Therapy” (Queen's University at Kingston, priority 2023, published 2024).

Conditions: positive control

CN(C)c1ccc2nc3ccc(=[N+](C)C)cc-3sc2c1 [Methylene blue]
QY of photochemical generation of 1O2: 0.52
